From US20250282802A1, “P[…] AND METHODS” (priority 2020, published 2025) come the findings set out here.

Read-outs that look alike come from different tables or passages of the source.

Assay [1] concerns A-549 (human lung carcinoma). Description: Cell culture cytotoxicity screening (Alamar Blue), A-549. The following applies: A549, A-549, Alamar Blue, 72 hours. The class given is cell-based. As for the experimental part:
(§1) FIG. 8. Cytotoxicity of pantaphos across various cancer cell lines. Assays were conducted as described (mBio. 2021 Feb. 2; 12(1):e03402-20), using the Alamar Blue method with 72-hour treatment using Raptinal ([…]) as Dead cell control; n=3. Cell seeding densities: CT26 (colon carcinoma) 2000 c/w; HOS (osteosarcoma) 2500 c/w; ES-2 (ovarian carcinoma), HCT-116 (colorectal carcinoma), A-549 (lung carcinoma), A-172 (glioblastoma), D54 (glioblastoma), U87 (glioblastoma), T98G (glioblastoma), SK-ML-28 (melanoma), MCF-7 (breast cancer), AM38 (glioblastoma) and MDA-MB-231 (breast cancer) 3000 c/w; U118MG (malignant glioma) 4000 c/w; HepG2 (liver cancer) 8000 c/w. c/w=cells per well. […]
(§2) Cell culture cytotoxicity screening. The compounds were evaluated for their ability to kill cancer cell lines in culture, using HOS (osteosarcoma); ES-2 (ovarian cancer); HCT 116 (colon cancer); A549 (lung carcinoma); and A172 (glioma) cells. Human skin fibroblast cells (HFF-1) were also assessed. […] 72 hours post-treatment, cell viability was assessed using the Alamar Blue method (http://www.bio-rad-antibodies.com/measuring-cytotoxicity-proliferation-spectrophotometry-fluorescence-alamarBlue.html). […] Conversion of Alamar Blue was measured with a plate reader (SpectraMax M3; Molecular Devices) by fluorescence (excitation wavelength: 555 nm; emission wavelength: 585 nm; cutoff 570 nm; autogain). […]
A general note: The colour change of resazurin is a common sign of viable cells or microbes.

The subject of assay [2] is human cell lines. The experiment in a line: Cytotoxicity profiling against a panel of human cell lines. The class given is cell-based. The following applies: human cell lines of Table 2, with the exception of ES-2; read-out: IC50 levels, range for each of the cell lines tested. As for the experimental part:
(§3) Cell culture cytotoxicity screening. The compounds were evaluated for their ability to kill cancer cell lines in culture, using HOS (osteosarcoma); ES-2 (ovarian cancer); HCT 116 (colon cancer); A549 (lung carcinoma); and A172 (glioma) cells. Human skin fibroblast cells (HFF-1) were also assessed. Cells were seeded (3000 cells well^−1 for ES-2, HCT 116, A549 and A172; 4000 cells well^−1 for HFF-1 and 2500 cells well^−1 for HOS) in a 96-well plate and allowed to attach overnight. Cells were treated with pantaphos in water. The concentrations of the tested compounds were 5 nM to 100 μM (1% water final; 100 μl well^−1). Raptinal (50 μM) was used as a dead control. On each plate, five technical replicates per compound were performed. 72 hours post-treatment, cell viability was assessed using the Alamar Blue method (http://www.bio-rad-antibodies.com/measuring-cytotoxicity-proliferation-spectrophotometry-fluorescence-alamarBlue.html). Alamar Blue solution (10 μl of 440 μM resazurin in sterile 1×PBS) was added to each well, and the plate was incubated for 3-4 hrs. Conversion of Alamar Blue was measured with a plate reader (SpectraMax M3; Molecular Devices) by fluorescence (excitation wavelength: 555 nm; emission wavelength: 585 nm; cutoff 570 nm; autogain). Percentage death was determined by normalizing to water-treated cells and Raptinal-treated cells. […]

The subject of assay [3] is Aspergillus fumigatus 1163. Description: Fungicidal bioassay (MIC), Aspergillus fumigatus. The assay is classed as cell-based. The conditions noted are these: for MIC: Aspergillus fumigatus, 1163, 48 hrs growth, CLSI. As for the experimental part:
Bacteria, plasmids and growth conditions. Bacterial strains, plasmids and primers used in this study are described in Table 3 and 4. General chemical and molecular biology reagents were purchased from Sigma-Aldrich or New England Biolabs. Phosphinothricin (glufosinate) was purchased from GoldBio (CAS #77182-82-2). Standard bacterial growth media were prepared as described (Current Protocols in Molecular Biology 2019, 125:e81, e82, e83). E. coli strains were typically grown at 37° C.; P. ananatis strains were typically grown at 30° C. Phosphonate induction media (PIM) was prepared as follows: 8.37 g/L MOPS, 0.72 g/L Tricine, 0.58 g/L NaCl, 0.51 g/L NH4Cl, 1.6 g/L KOH, 0.1 g/L MgCl2·6H2O, 0.05 g/L K2SO4, 0.2 g/L K2HIPO4 were dissolved H2O and steam sterilized for 20 min at 121° C. After cooling, 1× sterile trace element solution was added (1000× stock: 1.5 g/L nitrilotriacetic acid trisodium salt, 0.8 g/L Fe(NH4)2(SO4)2·7H2O, 0.2 g/L Na2SeO3, 0.1 g/L CoCl2·6H2O, 0.1 g/L MnSO4·H2O, 0.1 g/L Na2MoO4·2H2O, 0.1 g/L Na2WO4·2H2O, 0.1 g/L ZnSO4·7H2O, 0.1 g/L NiCl2·6H2O, 0.01 g/L H3BO3, 0.01 g/L CuSO4·5H2O) followed by addition of 1% (v/v) sterile glycerol and 50 μg/mL sterile kanamycin. For culturing of Candida and Saccharomyces strains, Rosewell Park Memorial Institute 1640 medium (RPMI; Sigma-Aldrich R6504) was used for liquid culturing and Sabouraud Dextrose Agar (SDA; Difco™ 210950) for solid plating unless otherwise specified. For Aspergillus strains, Rosewell Park Memorial Institute 1640 medium (RPMI) was used for liquid culturing and Potato Dextrose Agar (PDA; Difco™ 213400) was used for solid plating unless otherwise specified. YMM medium (6.7 g/L yeast nitrogen base without amino acids [BD Difco™ 291940], 20 g/L glucose, 1× trace element solution) was used as minimal media for fungal strains.
Fungicidal bioassays. […] Minimum Inhibitory Concentration (MIC) was determined visually by finding the concentration of compound at which there was no visual difference between that concentration and the uninoculated media control.

Assay [4] has as its system HCT-116 (human colon cancer). The experiment in a line: Cell culture cytotoxicity screening (Alamar Blue), HCT-116. The assay is classed as cell-based. The conditions noted are these: HCT-116, Alamar Blue, 72 hours. As for the experimental part: as §1, §2
Assay [5] has as its system U87 (glioblastoma). Description: Cytotoxicity profiling (Alamar Blue), U87. The assay is classed as cell-based. The conditions noted are these: Homo sapiens, 72-hour treatment. As for the experimental part: as §1, §2
For assay [6], the system named is MCF-7 (breast cancer). Description: Cytotoxicity profiling (Alamar Blue), MCF-7. The class given is cell-based, human. As for the experimental part:
FIG. 8. Cytotoxicity of pantaphos across various cancer cell lines. Assays were conducted as described (mBio. 2021 Feb. 2; 12(1):e03402-20), using the Alamar Blue method with 72-hour treatment using Raptinal ([…]) as Dead cell control; n=3. Cell seeding densities: CT26 (colon carcinoma) 2000 c/w; HOS (osteosarcoma) 2500 c/w; ES-2 (ovarian carcinoma), HCT-116 (colorectal carcinoma), A-549 (lung carcinoma), A-172 (glioblastoma), D54 (glioblastoma), U87 (glioblastoma), T98G (glioblastoma), SK-ML-28 (melanoma), MCF-7 (breast cancer), AM38 (glioblastoma) and MDA-MB-231 (breast cancer) 3000 c/w; U118MG (malignant glioma) 4000 c/w; HepG2 (liver cancer) 8000 c/w. c/w=cells per well. IC50 and Emax values shown in Table 6 were extracted from the raw data plotted in FIG. 8.
as §3, with “Alamar Blue solution (10 μl of 440 μM resazurin in sterile 1×PBS) was added to each well, and the plate was incubated for 3-4 hrs.” left out

The mark [7] stands for this setting: read-out: Emax = percentage cell death (converted).

A word on the IC50: it is the midpoint of a concentration-inhibition curve. Broadly, the Emax is the maximal effect, on the per cent scale that the assay sets. As usually defined, the MIC is the lowest concentration that inhibits growth of the organism. Turning to `O=C(O)/C=C(\C(=O)O)C(O)P(=O)(O)O` (stereo not drawn) [pantaphos, 2-(hydroxy(phosphono)methyl)maleate], the 50% inhibitory concentration (IC50) in assay [1] is 14.7 ± 0.61 µM; in assay [2], 6 to 37 µM; in assay [4], 10.4 ± 2 µM; in assay [6] (Homo sapiens, MCF7, MCF-7, Alamar Blue, 72-hour treatment (Table 6)), 2.88 ± 6.28 µM. Also, the Emax is 66% in assay [1] (setting [7]); 59% in assay [4] (setting [7]); 38 to 48% in assay [5]; 90 to 92% in assay [6] (Homo sapiens, MCF7, MCF-7, Alamar Blue, 72-hour treatment). In addition, the minimum inhibitory concentration (MIC) in assay [3] (M9 minimal medium, read-out: MIC, Minimal medium) is over 125 µM; in assay [3] (RPMI 1640 medium, read-out: MIC, Rich medium), over 125 µM. In addition, in assay [3] (rich or minimal media), the “effect on the growth of fungi, in words” value is “no effect on the growth”. For the same compound, the “sensitivity of the cell line to the compound, in words” value in assay [6] (MCF-7) is reported as “sensitive”.
